Measurements taken from US8163476B2, “CUDR as biomarker for cancer progression and therapeutic response” (The Chinese University of Hong Kong, priority 2004, dated 2012).

How the values were obtained:
[1] = tested on: A431 parent cells, A5A and A10A cells; test: Response of A431 sublines to doxorubicin by MTT assay; format: cell-based, human; details: A431/A5A and A10A cells versus A431 parent cells; incubated with drug for 5 days; FIG. 1
Method: Responses of A431 parent cells, A5A and A10A cells to doxorubicin (DOX) were compared in this Example.
A431/A5A cells were A431 cells survived from treatment with 5 μg/ml of DOX, and A10A cells were derived from A5A cells survived from treatment with 10 μg/ml of DOX.
Cells were seeded in 96-well plates for 2 days and incubated with various concentrations of DOX for 5 days. At the end of the incubation, the cells were incubated in 50 μl of a 0.1 mg/ml solution of 3-[4,5-dimethylthiaol-2-yl]-2,5-diphenyltetrazolium bromide (MTT) at 37° C. for 3 h and lysed in 150 μl of dimethyl sulfoxide at room temperature for 30 min. The absorbance of each well was measured at 580 nm in a microplate reader. The survival percentage of cells was calculated as the ratio between cells with drug treatment and cells without drug treatment.

[2] = tested on: stable CUDR transfectant of A431 cells; test: Response of stable CUDR transfectants of A431 cells to DOX and Taxol by MTT assay; format: cell-based, human; details: CUDR transfectants versus A431 cells transfected with empty vector; drug for 5 days; FIGS. 5A and 5C
Method: (§1) A431 cells were transfected with a vector carrying the full-length CUDR cDNA or an empty vector. After transfection, the cells were selected with G418 and individual colony was picked for establishment as stable transfectants. The stable transfectants were maintained in culture supplemented with G418. The response of cells to drugs was measured by both MTT assay and DNA fragmentation assay.
For the MTT assay, the cells were seeded in a 96-well plate for 2 days and incubated with various concentrations of DOX or Taxol for 5 days. At the end of the incubation, the cells were incubated with 50 μl of a 0.1 mg/ml solution of 3-[4,5-dimethylthiaol-2-yl]-2,5-diphenyltetrazolium bromide (MTT) at 37° C. for 3 h and lysed in 150 μl of dimethyl sulfoxide at room temperature for 30 min. The absorbance of each well was measured at 580 nm in a microplate reader. The percentage of cell survival was calculated as the ratio between cells with drug treatment and cells without drug treatment. The MTT results for DOX and Taxol were shown in FIGS. 5A and 5C respectively. ◯: control cells, i.e. A431 cells transfected with empty vector; ▴: stable CUDR transfectant of A431 cells. Error bar: standard deviation.

[3] = tested on: stable CUDR transfectant of A431 cells; test: DNA fragmentation assay (apoptotic response) in stable CUDR transfectants of A431 cells; format: cell-based, human; details: CUDR transfectants versus A431 cells transfected with empty vector; drug for 3 days; FIGS. 5B and 5D
Method: as §1
DNA fragmentation assay, one of the common methods, was conducted to assess the apoptotic response of cells upon treatment with anticancer drug. The cells were seeded in 60 mm Petri dish for 2 days and then exposed to various concentrations of DOX or Taxol for 3 days. After incubation, the cells were lysed in lysis buffer containing Tris-HCl, SDS, EDTA and protease K and incubated at 45° C. for 2 h. After phenol/chloroform extraction, DNA was precipitated with sodium acetate and 100% ethanol. After overnight digestion with RNase A at 37° C., 40 μg of the DNA sample were separated on 1.5% EtBr staining agarose gel. The DNA fragmentation pattern was viewed with UV light box. The presence of the “DNA laddering” pattern indicates the induction of apoptosis in cells; the more extensive the laddering pattern, the more significant the apoptosis induction. AN: control cells, A431 cells transfected with an empty vector; AG: stable CUDR transfectant of A431 cells; and M: 100 bp marker.

[4] = tested on: Human squamous carcinoma A431 cells; test: Doxorubicin sensitivity of A431 cells after transfection with full-length CUDR or CUDR antisense oligonucleotides (MTT assay); format: cell-based; details: plasmid 24 h or oligonucleotides 4 h, then DOX for 48 h
Method: The role of CUDR in sensitivity of cells to doxorubicin was examined. Human squamous carcinoma A431 cells were transfected with either plasmid carrying the full-length CUDR cDNA or antisense oligonucleotides of CUDR. The cells were seeded in a 96-well plate for 4 h before incubation with full-length CUDR plasmid DNA for 24 h or CUDR oligonucleotides for 4 h. After transfection, the cells were incubated with DOX for 48 h. The cell survival was measured by MTT assay. Furthermore, the CUDR mRNA level after transfection was examined by Northern blot analysis.
In FIG. 4A, ---o--- (C): cells without transfection; -▪- (CUDR): cells transfected with full length CUDR. In FIG. 4B, ---o--- (C): Cells without transfection treatment; -●- (S): transfection with sense CUDR oligonucleotides; -▪- (AS): transfection with CUDR antisense oligonucleotides.
Antisense sequence for CUDR was: 5′-[…]-3′ (nt1347-1367) (SEQ ID NO:9) and the sequence for the sense oligonucleotides was complementary to that of the antisense.

| Molecule | response of cells to drug (survival percentage of cells) [1] | response of cells to drug (percentage of cell survival) [2] | apoptotic response of cells upon drug treatment (DNA laddering) [3] | effect of transfection on doxorubicin sensitivity of cells (cell survival) ([4]; FIG. 4) | effect of transfection on doxorubicin sensitivity of cells (cell survival) ([4]; FIG. 4, listed as antisense CUDR nucleic acids) |
| --- | --- | --- | --- | --- | --- |
| COc1cccc2c1C(=O)c1c(O)c3c(c(O)c1C2=O)C[C@@](O)(C(=O)CO)C[C@@H]3O[C@H]1C[C@H](N)[C@H](O)[C@H](C)O1 [DOX, doxorubicin] | more resistant | more resistant | more refractory to the apoptosis | – | – |
| CC(=O)O[C@H]1C(=O)[C@@]2(C)[C@H]([C@H](OC(=O)c3ccccc3)[C@]3(O)C[C@H](OC(=O)[C@H](O)[C@@H](NC(=O)c4ccccc4)c4ccccc4)C(C)=C1C3(C)C)[C@]1(OC(C)=O)CO[C@@H]1C[C@@H]2O [Taxol] | – | more resistant | more refractory to the apoptosis | – | – |
| antisense CUDR oligonucleotides: Antisense sequence for CUDR: 5′-CAAGGTGCCAGTTAGCGTAT-3′ (nt1347-1367) (SEQ ID NO:9) (listed as DNA, chemistry not given here) | – | – | – | increased the DOX sensitivity of cells | increase the drug sensitivity of cancer cells |
